{"source": "ChEMBL document CHEMBL5726596", "about": "“Pyrazolo pyrimidine derivatives and their use as MALT1 inhibitors” (2017)", "target": "T1, Mucosa-associated lymphoid tissue lymphoma translocation protein 1 (Homo sapiens, UniProt Q9UDY8)", "T1 sequence (Q9UDY8 whole entry)": "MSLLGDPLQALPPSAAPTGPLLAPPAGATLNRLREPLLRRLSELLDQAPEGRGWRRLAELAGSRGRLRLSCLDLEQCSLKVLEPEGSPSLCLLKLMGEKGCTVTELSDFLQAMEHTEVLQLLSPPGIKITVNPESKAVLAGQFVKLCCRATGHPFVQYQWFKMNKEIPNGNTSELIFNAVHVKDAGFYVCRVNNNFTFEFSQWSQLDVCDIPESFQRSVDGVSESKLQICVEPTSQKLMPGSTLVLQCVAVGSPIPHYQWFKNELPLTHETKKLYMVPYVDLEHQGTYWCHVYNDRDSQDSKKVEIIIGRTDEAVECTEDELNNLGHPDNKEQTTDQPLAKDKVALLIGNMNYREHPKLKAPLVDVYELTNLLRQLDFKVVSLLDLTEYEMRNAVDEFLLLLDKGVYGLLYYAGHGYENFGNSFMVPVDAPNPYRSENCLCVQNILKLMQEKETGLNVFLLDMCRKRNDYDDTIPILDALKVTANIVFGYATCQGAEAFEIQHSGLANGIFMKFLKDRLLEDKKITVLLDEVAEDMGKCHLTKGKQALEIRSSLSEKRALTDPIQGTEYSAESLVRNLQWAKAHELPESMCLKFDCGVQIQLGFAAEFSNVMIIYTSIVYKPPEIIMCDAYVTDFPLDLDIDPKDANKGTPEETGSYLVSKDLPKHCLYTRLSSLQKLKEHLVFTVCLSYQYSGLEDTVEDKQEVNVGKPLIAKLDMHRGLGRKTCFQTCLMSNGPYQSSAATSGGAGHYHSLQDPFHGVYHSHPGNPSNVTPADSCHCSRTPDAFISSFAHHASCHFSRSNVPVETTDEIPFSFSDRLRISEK", "test": "The assay buffer consists of 200 mM Tris/HCl at pH 7.5, 0.8 M Na citrate, 100 μM EGTA, 100 μM DTT and 0.05% (w/v) CHAPS. […] Test compounds were dissolved in 100% (v/v) DMSO or a mixture containing 90% (v/v) DMSO and 10% (v/v) H2O at a stock concentration of 100 mM. Serial dilutions of test compounds were prepared using either 100% (v/v) DMSO or a mixture containing 90% (v/v) DMSO and 10% (v/v) H2O.", "data": [{"smiles": "CCOc1ncc(NC(=O)Nc2cnc3cc(Cl)nn3c2C(C)C)cc1Cl", "values": [{"measurement": "IC50", "result": 5, "unit": "nM"}]}]}
